In series [1] the target is T1, ABAD (Homo sapiens (Human), UniProt Q99714). Kind of series: Inhibition of reduction of S-acetoacetyl-CoA (SAAC) by ABAD (ABAD enzymatic activity). The format is biochemical.
Description: Assay of ABAD Enzymatic Activity. […] Before the assay, all the assay components except SAAC were pre-incubated for 5 minutes, and the reaction started with the addition of SAAC into the reaction mix. The reaction was carried out for a total 6 minutes at room temperature under steady-state conditions, and the decrease of NADH absorbance at 340 nm was determined every 10 seconds. Kinetic data were analyzed by PRISM (Scitech, San Diego, Calif.) to determine IC50 values and Ki.
Series [2] concerns the target T1, ABAD. As to the kind of experiment: Surface plasmon resonance (BIACORE 3000) binding experiment with ABAD.
Description: Binding Experiment with ABAD. The interactions between compounds and ABAD were performed using the dual flow cell BIACORE 3000 instrument. Surface Plasmon Resonance (SPR) studies were performed on a BIACORE 3000 at 25° C. SPR binding experiments with ABAD were performed in phosphate-buffered saline (PBS, pH 7.4, 0.005% surfactant P20) as the running and the sample buffer. […] ABAD was dissolved in PBS buffer (pH 5.0) at a concentration of 10 μg/ml. The protein was immobilized directly and covalently on the hydrophilic carboxymethylated dextran matrix of the CM5 sensor chip (BIACORE) by using the standard primary amine coupling reaction on a CM5 sensor chip according to standard procedures. After the immobilization of the protein, excess activated carboxylic acid groups were quenched with ethanolamine (1 M, pH 8.5).
Special care was taken during injection of samples because of carryover effects. Special washing routines were used to clean the system before injection of new samples. In addition, predipping of needles was performed. The sample flow was 40 μl/minute in experiments performed for the determination of the kinetic and equilibrium constants. Regeneration of the surfaces between subsequent binding experiments was achieved by washing the surface extensively (>>1 hour) with buffer solution. Data analyses were carried out using BIA evaluation software, and the sensor grams were processed by automatic correction for nonspecific bulk refractive index effects. The kinetic analyses of the ligand binding to the protein were performed based on the 1:1 Langmuir binding fit model according to the standard procedures described in the software manual.
To perform kinetic analyses of the binding of phosphonate derivatives to ABAD, the BIACORE 3000 instrument (based on surface plasmon resonance [SPR] technology) was used. The 1:1 Langmuir binding fit model was used for determining the equilibrium dissociation constant (KD), and the association (kon) and dissociation (koff) rate constants by using Equations (1) and (2). dR/dt=kon×C×(Rmax−R)−koff×R (1) Where R represents the response unit, C is the concentration of the analyte, and KD=koff/kon (2) The results were evaluated by χ2 analysis.
The subject of series [3] is mitochondrial permeability transition pore (mPTP). As to the kind of experiment: Mitochondria swelling assay in response to Ca2+. Also on record: species or system mice. Particulars: for calcium-mediated mitochondrial swelling: with calcium. As for the experimental part: Isolation of Brain Mitochondria. Brain from mice without white matter was used for mitochondrial isolation. Brain was homogenized in 9 ml of ice-cold EB buffer (1 mmol EDTA, 1-6 mg/ml BSA) using a Dounce homogenizer until no particles could be seen. Homogenates were centrifuged at 1300×g for 5 minutes. Supernatant from this fraction was carefully laid on top of a 15% PERCOLL solution (10 ml) and then centrifuged at 16000 RPM for 10 minutes. The pellet was carefully mixed with 9 ml of mitochondrial buffer (4.098% D-mannitol, 2.56% sucrose, 0.034% K2HPO4, pH 7.3-7.4) and 200 μl of 1% digitonin. After 5 minutes incubation on ice, the mixture was centrifuged at 8000 RPM for 10 minutes. Mitochondrial pellet was washed once with mitochondrial buffer. Subsequently, the mitochondrial pellet was resuspended in 100 μl of mitochondrial buffer and was used for further experiments.
Mitochondria Swelling Assay. A proper amount of mitochondria was resuspended into 1 ml swelling assay buffer (150 mM KCl, 2 mM KH2PO4, 10 mM HEPES, pH 7.4) and energized by 1 mM glutamate and 1 mM malate. Calcium at varying concentrations was added into the assay buffer to trigger mitochondrial swelling. Mitochondrial permeability transition was determined by studying the rate of change in absorbance at 540 nm via a spectrophotometer.
Mitochondrial Swelling in Response to Ca^2+. Given that the Compounds 4, 8 and 15 could inhibit ABAD activity, it was determined whether these same compounds could decrease mitochondrial permeability transition pore (mPTP) formation.

The test system of series [4] is SK-N-SH cells. As to the kind of experiment: Mitochondrial cytochrome c oxidase (CcO) activity in Aβ-treated cells. In kind it is cell-based. Particulars: for CcO activity, inhibitor alone: 1 μM inhibitor alone, without Aβ; for Aβ-mediated decrease of CcO activity: 5 μM oligomer Aβ1-42 plus 1 μM compound, 48 hours. The procedure: SK-NSH cells were treated with 5 μM oligomer Aβ plus 1 μM of ABAD inhibitor; inhibitor alone; vehicle (VEH) without inhibitor; or Aβ alone. Forty-eight hour later, CcO activity (μmol protein mg^−1 min^−1) was measured in cell lysates.
Method of Measurement of Mitochondrial Cytochrome c Oxidase (CcO) Activity. The CcO activity was measured according to known methods (Du, et al. (2008) Nat. Med. 14:1097-105) with a cytochrome c oxidase kit (Sigma). In brief, SK-N-SH cells were incubated with ABAD inhibitor and oligomer Aβ for 48 hours. After washing the cells twice with PBS, the cells were collected and concentration was determined by the Bradford method. A suitable volume of cells and enzyme solution was added to 475 μl assay buffer. The reaction was triggered by the addition of 25 μl freshly prepared ferrocytochrome C substrate solution into the cuvette. Changes in OD550 nm were recorded immediately with an Amersham Biosciences ULTROSPECT 3100 pro spectrophotometer.
Cytochrome C Oxidase (CcO) Activity. To assess the effect of ABAD inhibitor on […] mitochondrial respiratory function, CcO activity was determined.

In series [5] the test system is SK-N-SH cells. Kind of series: ATP levels in Aβ-treated cells. In kind it is cell-based. Particulars: for ATP levels in Aβ-treated cells: 5 μM Aβ1-42 plus 1 μM compound; for ATP levels, inhibitor alone: without Aβ. The procedure:
Forty-eight hour later, ATP levels (μmol mg^−1 protein) were measured in cell lysates.
Adenosine-5′-Triphosphate (ATP) Levels. To determine the effect of ABAD inhibitors on Aβ-induced impairment in energy metabolism, ATP levels were measured. […] ATP levels were measured in the cell lysates. […] Therefore, ABAD inhibitors can block mitochondrial dysfunction mediated by Aβ.

Series [6] is described as follows: Stability of standards under temperature and storage conditions. In kind it is physicochemical. Particulars: standards in methanol; 25° C. short-term, −20° C. for twenty days. The procedure:
Stability. The stability of compounds 4, 8, and 15 was evaluated in ACSF, plasma, and brain matrices under various temperature and storage conditions. Stability at room temperature was studied by analyzing samples at 25° C. for 2 and 4 hours and stability at −80° C. was checked for one month. Samples were analyzed after three (−80° C. to 25° C.) freeze-thaw cycles. Stability studies were performed at three concentrations.
Stability The stability of ABAD compounds were determined under different temperature and storage conditions. 4, 8 and 15 standards were dissolved in methanol and were subjected short-term exposure at 25° C. for and 4 hours long-term storage conditions were assessed at −20° C. for twenty days.

Setting [7] is: Table 6, reduction of SAAC by ABAD, read-out: IC50.
Setting [8] is: Table 6, reduction of SAAC by ABAD, read-out: Ki.
[9] abbreviates: Table 7, read-out: ABAD Enzymatic Activity IC50.
[10] abbreviates: Table 7, read-out: ABAD Enzymatic Activity Ki.
The mark [11] stands for this setting: Table 7, 1:1 Langmuir binding fit, read-out: SPR KD.

Read-outs that look alike come from different tables or passages of the source.

T1 sequence (Q99714 whole entry): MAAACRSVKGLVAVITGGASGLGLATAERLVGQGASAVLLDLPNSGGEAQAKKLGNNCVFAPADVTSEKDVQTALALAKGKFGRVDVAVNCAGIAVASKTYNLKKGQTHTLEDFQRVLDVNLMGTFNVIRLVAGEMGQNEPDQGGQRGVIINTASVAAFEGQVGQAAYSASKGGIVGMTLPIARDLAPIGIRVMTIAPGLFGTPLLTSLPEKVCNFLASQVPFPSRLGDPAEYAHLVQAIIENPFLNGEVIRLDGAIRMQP

One may read the IC50 as the concentration that inhibits the measured activity by half. Broadly, the Ki is a measure of affinity in units of concentration, obtained from inhibition or displacement. As a reminder, the Kd is the free concentration of one partner at which half of the binding sites on the other are occupied at equilibrium, for simple one-to-one binding. `COc1ccc2nc(N[C@@H](c3ccc(O)cc3)P(=O)(OC)OC)sc2c1` (racemic) [Compound 8, Dimethyl ((4-hydroxyphenyl)((6-methoxybenzo[d]thiazol-2-yl)amino)methyl)phosphonate]: the IC50 in series [1] (setting [7]) worked out at 259 µM. Also, in series [1] (setting [8]), the Ki worked out at 70.6 µM. Moreover, in series [1] (setting [9]), the IC50 was 52.7 µM. Besides, in series [1] (setting [10]), the Ki was determined as 14.9 µM. For the same compound, in series [1] (in words), the “inhibitory effect on SAAC reduction by ABAD” value is given as “most potent inhibitory effect”. In addition, the Kd in series [2] (setting [11]) is 0.291 µM. In series [3], the calcium-mediated mitochondrial swelling result is listed as “antagonized calcium-mediated mitochondrial swelling” and the “mitochondrial swelling without calcium” value is reported as “did not affect mitochondrial swelling without calcium”. In series [4], the “CcO activity, inhibitor alone” value is reported as “no effect on CcO activity without Aβ” and the “Aβ-mediated decrease of CcO activity” value is “reversed the Aβ-mediated decrease of CcO activity”. Besides, in series [5], the “ATP levels in Aβ-treated cells” value was “rescued ATP levels” and the “ATP levels, inhibitor alone” value was “comparable to cells treated with vehicle alone without Aβ”. Also, the “stability, variability across all samples” value in series [6] is “less than 10 % (RSD)”.

As to `COC(=O)c1cc([C@H](Nc2nc3ccc(OC)cc3s2)P(=O)(OC)OC)ccc1O` [Compound 4, Methyl 5-((dimethoxyphosphoryl)((6-methoxybenzo[d]thiazol-2-yl)amino)methyl)-2-hydroxybenzoate], in series [1] (setting [7]), the IC50 was determined as 19.6 µM. In series [1] (setting [8]), the Ki is 5.5 µM. Further, the IC50 in series [1] (setting [9]) came to 341 ± 68.7 µM. The Ki in series [1] (setting [10]) was 96.6 ± 19.4 µM. For the same compound, in series [1] (in words), the “inhibitory effect on SAAC reduction by ABAD” value is recorded as “modest inhibitory effect”. Besides, the Kd in series [2] (Table 6, read-out: KD) came out at 0.496 µM. Further, the Kd in series [2] (setting [11]) is 0.496 µM. Further, in series [3], the calcium-mediated mitochondrial swelling result is given as “antagonized calcium-mediated mitochondrial swelling” and the “mitochondrial swelling without calcium” value is “did not affect mitochondrial swelling without calcium”. Further, in series [4], the “CcO activity, inhibitor alone” value was “no effect on CcO activity without Aβ” and the “Aβ-mediated decrease of CcO activity” value is listed as “reversed the Aβ-mediated decrease of CcO activity”. Further, in series [5], the “ATP levels in Aβ-treated cells” value was “rescued ATP levels” and the “ATP levels, inhibitor alone” value was “comparable to cells treated with vehicle alone without Aβ”. The “stability, variability across all samples” value in series [6] is “less than 10 % (RSD)”.

For the compound `COc1ccc2nc(N[C@@H](c3ccc(F)cc3)P(=O)(OC)OC)sc2c1` [Compound 15, Dimethyl ((4-fluorophenyl)((6-methoxybenzo[d]thiazol-2-yl)amino)methyl)phosphonate], in series [1] (setting [9]), the IC50 is 1260 ± 199 µM. The Ki in series [1] (setting [10]) worked out at 356 ± 56.1 µM. Further, the “inhibition of SAAC reduction by ABAD” value in series [1] (at 10 μM) is given as “did not inhibit”. Besides, the “inhibitory effect on SAAC reduction by ABAD” value in series [1] (at 100 or 400 μM) is “slight inhibitory effect”. Also, the Kd in series [2] (setting [11]) came to 0.264 µM. In series [3], the calcium-mediated mitochondrial swelling result is “antagonized calcium-mediated mitochondrial swelling” and the “mitochondrial swelling without calcium” value is reported as “did not affect mitochondrial swelling without calcium”. In series [4], the “CcO activity, inhibitor alone” value is “no effect on CcO activity without Aβ” and the “Aβ-mediated decrease of CcO activity” value was “reversed the Aβ-mediated decrease of CcO activity”. In addition, in series [5], the “ATP levels in Aβ-treated cells” value is “rescued ATP levels” and the “ATP levels, inhibitor alone” value is “comparable to cells treated with vehicle alone without Aβ”. Further, the “stability, variability across all samples” value in series [6] is “less than 10 % (RSD)”.

Values taken from patent US9346839B2.
